From patent publication US8455510B2

How the values were obtained:
FKBP-12 protein = target: T1, FKBP-12 protein (Homo sapiens, UniProt P62942); assay: SPR (surface plasma resonance) binding with FKBP-12
T1 construct: purchased sigma Co
Method: (1) FKBP-12 protein was purchased from sigma Co.
(2) HBS-EP buffer solution (10 mM Hepes, 150 mM NaCl, 3.4 mM EDTA, 0.005% (v/v) surfactant P20, pH 7.4)
(3) Activating reagents EDC and NHS, and blocking reagents Ethanolamine, etc., were purchased from BIACORE AB Co. (Uppsala, Sweden).
(4) BIAcore 3000 and CM5 chip were purchased from BIACORE AB Co. (Uppsala, Sweden).
(2) […] was coupled to the FC2 channel on CM5 chip by using the Wizard for amino-coupling in Biacore 3000 controlling soft. 3.3 g/L of FKBP-12 protein was diluted with 10 mM NaAC (pH 4.6) to 66 μg/ml. The surface of the chip was washed by injecting a mixture of 0.1M1-(3-dimethylaminopropyl)-3-ethylcarbodiimide hydrochloride (EDCI) and 0.1M N-hydroxysuccinimide (NHS) (1:1) at a flow rate of 20 μL/min for 7 min. After that, the protein solution was injected, and then a 1M cholamine (pH 8.5) solution was fed for 7 min to block the activated surface of the chip. Preliminary screening and pharmacokinetic tests on the compounds
The binding abilities of small molecular compounds with FKBP-12 protein were evaluated by SPR (surface plasma resonance). The stock solution of the compound was 10 mM, and was diluted by HBS-EP buffer solution at given ratios. Pharmacokinetic tests were carried out by the Wizard for kinetic analysis in Biacore 3000 controlling soft. The resulted data were fitted by 1:1 Langmuir binding model or stability model in Biacore 3000 analytical soft to obtain the exact kinetic and thermodynamic constants.

[1] = tested on: bovine type II collagen-induced arthritis; assay: Bovine type II collagen-induced arthritis; assay type: in vivo, DBA/1 mice; conditions: 1 mg/kg, from 14th day after attack, 3 weeks, FIG. 16, P<0.05

T1 sequence (P62942 whole entry, species assumed): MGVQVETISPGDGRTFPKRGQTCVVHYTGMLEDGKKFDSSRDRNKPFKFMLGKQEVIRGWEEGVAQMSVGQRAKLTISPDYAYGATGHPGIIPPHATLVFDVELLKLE

CO[C@H]1C[C@@H]2CC[C@@H](C)[C@@](O)(O2)C(=O)C(=O)N2CCCC[C@H]2C(=O)O[C@H]([C@H](C)C[C@@H]2CC[C@@H](OC(=O)OCC(O)CO)[C@H](OC)C2)CC(=O)[C@H](C)/C=C(\C)[C@@H](O)[C@@H](OC)C(=O)[C@H](C)C[C@H](C)/C=C/C=C/C=C/1C (stereo partly shown) [Y31]
binding with FKBP12 (FKBP-12 protein): concentration-dependently bind | Kd (FKBP-12 protein; FKBP12): 0.1 nM | koff (FKBP-12 protein; FKBP12): 0.11 × 10^−3 S^−1 | kon (FKBP-12 protein; FKBP12): 1.05 × 10^6 M^−1S^−1 | R^U (Response Unit) compared with rapamycin (FKBP-12 protein; at the same concentration): higher | concentration to reach the saturation state for the binding with FKBP12 (FKBP-12 protein; compared with rapamycin): lower than that for rapamycin | effect on the severe degree of CIA (arthritis score) [1]: significantly reduce the severe degree of CIA
